Assay results: PubChem BioAssay AID328 (DTP/NCI, 2004)
Several values for one entry are separate records, joined by “and”; a condition that tells them apart may be missing. Equal entries are not always repeated. Inconclusive results and toxic doses are left out. The calls were made as follows: active = survival T/C of 150% or more; inactive = T/C below 125% in these data.

Test system: BDF1 mice, P388 leukemia ip, median survival T/C
Test: NCI In Vivo Anticancer Drug Screen. Data for tumor model P388 Leukemia (intraperitoneal) in B6D2F1 (BDF1) mice
Conditions: endpoint: median survival time, higher = longer survival
How it was run: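 Survival ratio, drug arm over vehicle arm, in mice with a transplanted tumour.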

[1] = dose: 50.0 mg/kg/injection, schedule: Q01DX009 (ip), vehicle: saline with Tween-80
[2] = dose: 100.0 mg/kg/injection, schedule: Q01DX009 (ip), vehicle: saline with Tween-80
[3] = dose: 200.0 mg/kg/injection, schedule: Q01DX009 (ip), vehicle: saline with Tween-80
[4] = dose: 100.0 mg/kg/injection, schedule: Q04DX003 (ip), vehicle: saline with Tween-80
[5] = dose: 200.0 mg/kg/injection, schedule: Q04DX003 (ip), vehicle: saline with Tween-80
[6] = dose: 400.0 mg/kg/injection, schedule: Q04DX003 (ip), vehicle: saline with Tween-80
[7] = dose: 50.0 mg/kg/injection, schedule: Q04DX003 (ip), vehicle: saline
[8] = dose: 100.0 mg/kg/injection, schedule: Q04DX003 (ip), vehicle: saline
[9] = dose: 50.0 mg/kg/injection, schedule: Q04DX003 (ip), vehicle: Klucel (hydroxypropylcellulose) (HPC)
[10] = dose: 100.0 mg/kg/injection, schedule: Q01DX009 (ip), vehicle: Klucel (hydroxypropylcellulose) (HPC)
[11] = dose: 100.0 mg/kg/injection, schedule: Q04DX003 (ip), vehicle: Klucel (hydroxypropylcellulose) (HPC)
[12] = dose: 200.0 mg/kg/injection, schedule: Q01DX009 (ip), vehicle: Klucel (hydroxypropylcellulose) (HPC)
[13] = dose: 200.0 mg/kg/injection, schedule: Q04DX003 (ip), vehicle: Klucel (hydroxypropylcellulose) (HPC)
[14] = dose: 200.0 mg/kg/injection, schedule: Q04DX003 (ip), vehicle: saline

Measured: T/C

COc1ccc2nonc2c1
inactive: dose: 25.0 mg/kg/injection, schedule: Q01DX009 (ip), vehicle: saline with Tween-80 102 % of control | [1] 93 % of control | [2] 90 % of control | [3] 106 % of control

NC(=O)NN=C(CS)CS
inactive: dose: 6.25 mg/kg/injection, schedule: Q01DX009 (ip), vehicle: gum acacia 101 % of control | dose: 12.5 mg/kg/injection, schedule: Q01DX009 (ip), vehicle: gum acacia 100 % of control | dose: 25.0 mg/kg/injection, schedule: Q01DX009 (ip), vehicle: gum acacia 102 % of control | dose: 50.0 mg/kg/injection, schedule: Q01DX009 (ip), vehicle: gum acacia 100 % of control

COc1cc(C(=O)N(CCCl)N=O)cc(OC)c1OC
inactive: dose: 25.0 mg/kg/injection, schedule: Q04DX003 (ip), vehicle: saline with Tween-80 100 % of control | [1] 100 % of control | dose: 50.0 mg/kg/injection, schedule: Q04DX003 (ip), vehicle: saline with Tween-80 100 % of control | [2] 100 % of control | [4] 100 % of control and 109 % of control | [3] 100 % of control | [5] 100 % of control | [6] 109 % of control

COC1(c2ccc(Br)cc2)OC1(C)C (stereo not drawn)
inactive: dose: 6.25 mg/kg/injection, schedule: Q04DX003 (ip), vehicle: water 101 % of control | dose: 12.5 mg/kg/injection, schedule: Q04DX003 (ip), vehicle: water 94 % of control | dose: 25.0 mg/kg/injection, schedule: Q01DX009 (ip), vehicle: water 110 % of control | dose: 25.0 mg/kg/injection, schedule: Q04DX003 (ip), vehicle: water 101 % of control | dose: 50.0 mg/kg/injection, schedule: Q01DX009 (ip), vehicle: water 112 % of control | dose: 50.0 mg/kg/injection, schedule: Q04DX003 (ip), vehicle: water 97 % of control | dose: 100.0 mg/kg/injection, schedule: Q01DX009 (ip), vehicle: water 100 % of control | dose: 100.0 mg/kg/injection, schedule: Q04DX003 (ip), vehicle: water 86 % of control | dose: 200.0 mg/kg/injection, schedule: Q01DX009 (ip), vehicle: water 110 % of control | dose: 400.0 mg/kg/injection, schedule: Q01DX009 (ip), vehicle: water 124 % of control

CC(C)C([NH-])=O.CC(C)C([NH-])=O.[Cl][Pt+2][Cl]
inactive: dose: 3.12 mg/kg/injection, schedule: Q01DX009 (ip), vehicle: saline 93 % of control | dose: 6.25 mg/kg/injection, schedule: Q01DX009 (ip), vehicle: saline 101 % of control and 118 % of control | dose: 12.5 mg/kg/injection, schedule: Q01DX009 (ip), vehicle: saline 87 % of control and 117 % of control | dose: 25.0 mg/kg/injection, schedule: Q01DX009 (ip), vehicle: saline 87 % of control and 112 % of control and 123 % of control | dose: 25.0 mg/kg/injection, schedule: Q04DX003 (ip), vehicle: saline 118 % of control | dose: 50.0 mg/kg/injection, schedule: Q01DX009 (ip), vehicle: saline 95 % of control | [7] 116 % of control | dose: 100.0 mg/kg/injection, schedule: Q01DX009 (ip), vehicle: saline 93 % of control and 112 % of control | [8] 114 % of control

CC/C(=N/O)c1ccccc1
inactive: [4] 90 % of control | [5] 110 % of control | [6] 105 % of control

O=C(Nc1ccc(Cl)cc1)c1ccccc1
inactive: dose: 50.0 mg/kg/injection, schedule: Q01DX009 (ip), vehicle: Klucel (hydroxypropylcellulose) (HPC) 122 % of control | [9] 95 % of control | [10] 95 % of control | [11] 91 % of control | [12] 90 % of control | [13] 100 % of control

c1ccc([I+]c2ccccc2)cc1
inactive: dose: 1.0 mg/kg/injection, schedule: Q01DX009 (ip), vehicle: saline 100 % of control | dose: 2.0 mg/kg/injection, schedule: Q01DX009 (ip), vehicle: saline 104 % of control | dose: 4.0 mg/kg/injection, schedule: Q01DX009 (ip), vehicle: saline 90 % of control | dose: 12.5 mg/kg/injection, schedule: Q04DX003 (ip), vehicle: saline sonified 115 % of control | dose: 12.5 mg/kg/injection, schedule: Q04DX003 (sc), vehicle: olive oil, sesame oil, peanut oil 96 % of control | dose: 25.0 mg/kg/injection, schedule: Q04DX003 (sc), vehicle: olive oil, sesame oil, peanut oil 100 % of control

c1ccc(-c2c[se]nn2)cc1
inactive: dose: 1.56 mg/kg/injection, schedule: Q01DX009 (ip), vehicle: saline + alcohol 102 % of control | dose: 3.13 mg/kg/injection, schedule: Q01DX009 (ip), vehicle: saline + alcohol 100 % of control | dose: 6.25 mg/kg/injection, schedule: Q01DX009 (ip), vehicle: saline + alcohol 89 % of control | dose: 6.25 mg/kg/injection, schedule: Q01DX009 (ip), vehicle: saline with Tween-80 86 % of control

Clc1ccc(N=Cc2cccs2)cc1
inactive: [1] 96 % of control | [2] 102 % of control | [3] 88 % of control

O=C1CSC(=S)N1c1ccco1
inactive: dose: 50.0 mg/kg/injection, schedule: Q01DX001 (ip), vehicle: Klucel (hydroxypropylcellulose) (HPC) 100 % of control | dose: 100.0 mg/kg/injection, schedule: Q01DX001 (ip), vehicle: Klucel (hydroxypropylcellulose) (HPC) 95 % of control | [8] 104 % of control | dose: 200.0 mg/kg/injection, schedule: Q01DX001 (ip), vehicle: Klucel (hydroxypropylcellulose) (HPC) 95 % of control | [14] 100 % of control | dose: 400.0 mg/kg/injection, schedule: Q04DX003 (ip), vehicle: saline 100 % of control

Cc1noc(C)c1CC1(Cc2c(C)noc2C)C(=O)CCC2(C)CCCC=C21 (stereo not drawn)
inactive: [9] 91 % of control | [10] 104 % of control | [11] 104 % of control | [12] 95 % of control | [13] 91 % of control

CCOC(=O)N1N(C(=O)c2ccccc2)C(=O)CC1(C)C
inactive: dose: 200.0 mg/kg/injection, schedule: Q01DX001 (ip), vehicle: other 100 % of control | dose: 400.0 mg/kg/injection, schedule: Q01DX001 (ip), vehicle: other 109 % of control

CCOC(=O)c1cnc2c(cnn2CC)c1NN=C(C)C
inactive: [7] 122 % of control | [14] 111 % of control

CC1OC(OC2C(=O)c3c(O)cc(O)cc3OC2c2ccc(O)c(O)c2)C(O)C(O)C1O (stereo not drawn)
inactive: dose: 25.0 mg/kg/injection, schedule: Q01DX009 (ip), vehicle: alcohol 100 % of control | dose: 50.0 mg/kg/injection, schedule: Q01DX009 (ip), vehicle: alcohol 96 % of control | dose: 100.0 mg/kg/injection, schedule: Q01DX009 (ip), vehicle: alcohol 92 % of control | dose: 200.0 mg/kg/injection, schedule: Q01DX009 (ip), vehicle: alcohol 106 % of control | [3] 115 % of control | dose: 300.0 mg/kg/injection, schedule: Q01DX009 (ip), vehicle: saline with Tween-80 90 % of control | dose: 455.0 mg/kg/injection, schedule: Q01DX009 (ip), vehicle: saline with Tween-80 99 % of control

CCCCCCCCC(=O)CCC
inactive: [9] 100 % of control | [11] 109 % of control | [13] 100 % of control | dose: 400.0 mg/kg/injection, schedule: Q04DX003 (ip), vehicle: Klucel (hydroxypropylcellulose) (HPC) 87 % of control
